Experimental data: patent publication US10329300B2, “Pyrazolo[3,4-d]pyrimidine compound or salt thereof” (TAIHO PHARMACEUTICAL CO., LTD., priority 2015, dated 2019)
Read-outs that look alike come from different tables or passages of the source.

Assays:
Assay type in all cases: cell-based
[1] = tested on: EGFR-overexpressing highly activated human epithelioid cancer cell line A431 cells; experiment: Cytostatic activity against EGFR-expressing cell line A431 (CellTiter-Glo); conditions: 3-day culture, read-out: A431 cell growth inhibitory activity IC50 value
Description: Test Example 2 Measurement Test (In Vitro) of Cytostatic Activity Against HER2-Expressing Cell Line (NCI-N87) and EGFR-Expressing Cell Line (A431) and Comparison of Selectivity Thereof
(§1) HER2-overexpressing human stomach cancer cell line NCI-N87 cells were suspended in RPMI1640 medium (manufactured by Life Technologies Corp.) containing 10% fetal bovine serum. Meanwhile, EGFR-overexpressing highly activated human epithelioid cancer cell line A431 cells were suspended in DMEM, high glucose medium (manufactured by Life Technologies Corp.) containing 10% fetal bovine serum. Subsequently, each cell suspension was inoculated to each well of a 384-well flat-bottom microplate and cultured at 37° C. for 1 day in an incubator containing 5% carbon dioxide. The compound of the present invention or Comparative Example compound 1 was dissolved in DMSO, and the test compound was diluted into a concentration of 500 times the final concentration using DMSO. The solution of the test compound in DMSO was diluted with the medium used in the suspension of each cell line, and this solution was added at a final concentration of DMSO of 0.2% to each well of the cell culture plate, followed by further culture at 37° C. for 3 days in an incubator containing 5% carbon dioxide.
Rate of growth inhibition (%)=(C−T)/(C)×100 T: Luminescence intensity of a well supplemented with the test compound C: Luminescence intensity of a well not supplemented with the test compound

[2] = tested on: HER2-overexpressing human stomach cancer cell line NCI-N87 cells; experiment: Cytostatic activity against HER2-expressing cell line NCI-N87 (CellTiter-Glo)
Description: as §1, with “The compound of the present invention or Comparative Example compound 1 was dissolved in DMSO, and the test compound was diluted into a concentration of 500 times the final concentration using DMSO.” left out

[3] = tested on: HER2-overexpressing human breast cancer cell line SK-BR-3 cells; experiment: Cytostatic activity against HER2-expressing cell line SK-BR-3 (CellTiter-Glo); conditions: 3-day culture, read-out: SK-BR-3 cell growth inhibitory activity IC50 value
Method: HER2-overexpressing human breast cancer cell line SK-BR-3 cells were suspended in McCoy's 5a medium (manufactured by Life Technologies Corp.) containing 10% fetal bovine serum. The cell suspension was inoculated to each well of a 384-well flat-bottom microplate and cultured at 37° C. for 1 day in an incubator containing 5% carbon dioxide. The compound of the present invention was dissolved in DMSO, and the test compound was diluted into 500 times as high concentration as the final concentration using DMSO. The solution of the test compound in DMSO was diluted with the medium used in the suspension of each cell line, and this solution was added at a final concentration of DMSO of 0.2% to each well of the cell culture plate, followed by further culture at 37° C. for 3 days in an incubator containing 5% carbon dioxide.

[4] = Homo sapiens, 72 h, 3-day culture, NCI-N87, read-out: NCI-N87 cell growth inhibitory activity IC50 value

Molecule	IC50 ([1]; Homo sapiens, A-431, 72 h) [nM]	IC50 [2, 4] [nM]	other results
C=CC(=O)N1CCC[C@@H](n2nc(C(=O)Nc3ccc(CC(=O)N(C)C)c(Cl)c3)c3c(N)ncnc32)C1 [Example 8, (R)-1-(1-acryloylpiperidin-3-yl)-4-amino-N-(3-chloro-4-(2-(dimethylamino)-2-oxoethyl)phenyl)-1H-pyrazolo[3,4-d]pyrimidine-3-carboxamide]	956		
C=CC(=O)N1CCC[C@@H](n2nc(C(=O)Nc3ccc(OC(=O)N(C)C)cc3OC)c3c(N)ncnc32)C1 [Example 36, (R)-4-(1-(1-acryloylpiperidin-3-yl)-4-amino-1H-pyrazolo[3,4-d]pyrimidine-3-carboxamido)-3-methoxyphenyl dimethylcarbamate]	2610		IC50 ([2]; Homo sapiens, NCI-N87, 72 h, read-out: NCI-N87 cell growth inhibitory activity IC50 value (nM)): 8 nM
(R)-1-(1-acryloylpiperidin-3-yl)-4-amino-N-(4-(2-methoxy(methyl)amino-2-oxoethyl)-2-methylphenyl)-1H-pyrazolo[3,4-d]pyrimidine-3-carboxamide [Example 72]			IC50 ([2]; 3-day culture, NCI-N87, read-out: NCI-N87 cell growth inhibitory activity IC50 value): 5 nM; IC50 [1]: 1170 nM; IC50 [3]: 16 nM
C=CC(=O)N1CC[C@@H](n2nc(C(=O)Nc3ccc(CC(=O)N(C)C)c(F)c3C)c3c(N)ncnc32)C1 [Example 56, (R)-1-(1-acryloylpyrrolidin-3-yl)-4-amino-N-(4-(2-(dimethylamino)-2-oxoethyl)-3-fluoro-2-methylphenyl)-1H-pyrazolo[3,4-d]pyrimidine-3-carboxamide]	2510		
C=CC(=O)N1CCC[C@@H](n2nc(C(=O)Nc3ccc(CC(=O)N(C)C)c4c3OCO4)c3c(N)ncnc32)C1 [Example 53, (R)-1-(1-acryloylpiperidin-3-yl)-4-amino-N-(7-(2-(dimethylamino)-2-oxoethyl)benzo[d][1,3]dioxol-4-yl)-1H-pyrazolo[3,4-d]pyrimidine-3-carboxamide]	1670	11	
(R,E)-4-(4-amino-1-(1-(4-dimethylamino)but-2-enoyl)piperidin-3-yl)-1H-pyrazolo[3,4-d]pyrimidine-3-carboxamido)naphthalen-1-yl dimethyl carbamate [Example 66]			IC50 [1]: 6040 nM
C=CC(=O)N1CCC[C@@H](n2nc(C(=O)Nc3cc(C)c(CC(=O)N(C)C)cc3C)c3c(N)ncnc32)C1 [Example 39, (R)-1-(1-acryloylpiperidin-3-yl)-4-amino-N-(4-(2-(dimethylamino)-2-oxoethyl)-2,5-dimethylphenyl)-1H-pyrazolo[3,4-d]pyrimidine-3-carboxamide]	1800	12	IC50 ([3]; Homo sapiens, 72 h): 24 nM
C=CC(=O)N1CCC[C@@H](n2nc(C(=O)Nc3nc4cc(F)ccc4o3)c3c(N)ncnc32)C1 [Comparative Example compound 1, (R)-1-(1-acryloylpiperidin-3-yl)-4-amino-N-(5-fluorobenzo[d]oxazol-2-yl)-1H-pyrazolo[3,4-d]pyrimidine-3-carboxamide, reference compound]		2380	cytostatic effect in evaluation using HER2-overexpressing cell lines ([2]; HER2-overexpressing cell lines, qualitative): very low cytostatic effect; IC50 ([3]; Homo sapiens, 72 h): 1130 nM
